The nature of test [1]: DPPH radical scavenging assay. The settings on record: 30 min, 517 nm, mean ± SD (n = 3). On the procedure: DPPH assay was determined according to the reported method ([10]). The tested compounds were dissolved in ethanol and diluted to a series of concentrations to be used as test solutions. A total of 100 μl 0.16 mmol/L DPPH in methanol (5 mg/100 ml) was mixed with 100 μl of the test solution. […] A blank sample containing 100 μl of methanol in the DPPH solution was measured. The same procedure was followed for the positive control, ascorbic acid. All samples were analyzed in triplicate at five different concentrations around the EC50 values.

Test [2] in a line: ABTS radical cation scavenging assay. The conditions noted are these: 6 min, 734 nm, mean ± SD (n = 3). How it is done:
The ABTS assay was performed as the reported method ([10]). Briefly, ABTS^+ radical cation was prepared by mixing a 7 mM aqueous stock solution of ABTS^+ and 2.6 mM potassium peroxydisulfate. The reaction mixture was stored in the dark at room temperature for 12 h prior to use. […] Then, 50 μl of the test solution was added to 200 μl of the ABTS^+ radical cation solution. […] A blank sample containing ABTS^+ solution was measured.

Test [3] is described as follows: Oxygen radical absorbance capacity (ORAC) assay. The conditions noted are these: Trolox equivalents, pH 7.4, mean ± SD (n = 3). On the procedure:
The oxygen radical absorbance capacity (ORAC) assay was performed according to the reported method with slight modifications ([11]). The assay was carried out in black-walled 96-well plates. Tested compounds were dissolved in 75 mM phosphate buffer (pH 7.4). […] A blank sample containing 20 μl of phosphate buffer in the reaction mix was prepared and measured. The area under the curve (AUC) was calculated for each sample by integrating the relative fluorescence curve. The net AUC of the sample was calculated by subtracting the AUC of the blank. The regression equation between net AUC and series concentration of Trolox was determined to establish a standard curve, and ORAC values were expressed as μmol Trolox equivalents/μmol samples using the standard curve established previously. All samples were analyzed in triplicate.

The target of another test is α-glucosidase. In words: α-glucosidase inhibitory activity assay (p-NPG substrate). It is filed as biochemical, Saccharomyces cerevisiae. The conditions noted are these: pH 6.9, 37°C, mean ± SD (n = 3). The text has this: Acetonitrile, methanol, and formic acid (HPLC grade) were obtained from Tedia Co. Inc. (Fairfield, OH, USA). Ethanol and phosphoric acid were purchased from Sinopharm Chemical Reagent Co. Ltd. (Shanghai, China). Folin-Ciocalteu's phenol reagent, 2,2-diphenyl-1-picrylhydrazyl (DPPH), 2,2′-azinobis-3-ethylbenzothiazoline-6-sulfonic acid (ABTS), α-glucosidase (from Saccharomyces cerevisiae), 4-nitrophenyl-α-D-glucose (p-NPG), and 6-hydroxy-2,5,7,8-tetramethylchroman-2-carboxylic acid (Trolox) were obtained from Sigma-Aldrich (St. Louis, MO, USA). Sodium fluorescein, 2,2′-azobis-2-amidino-propane (AAPH), metformin (Met), oleic acid (OA), and 2-[N-(7-Nitrobenz-2-oxa-1,3-diazol-4-yl)amino]-2-deoxy-D-glucose (2-NDBG) were obtained from Aladdin (Shanghai, China). The assay kits of triglycerides (TG), total cholesterol (TC), and oil-red-O staining were obtained from Jiancheng Bioengineering Institute (Nanjing, China). The BCA assay kit was obtained from Biosharp (Hefei, China). Dulbecco's modified Eagle's medium (DMEM), penicillin-streptomycin, and fetal bovine serum (FBS) were purchased from Invitrogen-Gibco (Grand Island, NY). The chemicals and reagents used in this study were all of pure analytical grade.
The α-glucosidase inhibitory activity was determined as previous methods with slight modifications ([12]). In short, the diluted sample working solution (1 μl) was added to 3 μl of α-glucosidase (0.5 U/ml in 0.1 M sodium phosphate buffer, pH 6.9) and 156 μl of 0.1 M sodium phosphate buffer (pH 6.9). Then, the mixture was incubated at 37°C for 20 min, and 40 μl of 1.5 mM p-NPG (dissolved in 100 mM sodium phosphate buffer, pH 6.9) was added and incubated for 20 min. Absorbance was measured by a microplate reader (Molecular Device, Sunnyvale, CA, USA). A complete reaction mixture without a sample was used as the control. Three parallel operations were performed. All the samples were analyzed in triplicate at five different concentrations around the IC50 values.

For test [4], the system named is HepG2 cells. In words: 2-NBDG glucose uptake in HG-OA stimulated HepG2 cells. It is filed as cell-based, Human. The settings on record: 12 h, HG-OA (36 mM glucose, 0.25 mM OA) treated HepG2, p < 0.001 vs model. How it is done:
(§1) HepG2 cells were starved in DMEM with 2% FBS for 9 h. To establish an in vitro model of diabesity, cells were stimulated with high glucose (36 mM glucose) and 0.25 mM OA for 12 h according to our previous study ([14]). Then, BB1-BB5 (50 and 100 μM) and Met (100 μM) were added for another 12 h. OA or BB1-BB5 was dissolved in DMSO and added to HepG2 cells in DMEM, and the final DMSO concentration received by the cells was 0.1% (v/v).
After the model was established, HepG2 cells were treated with BB1-BB5 (50 and 100 μM in low and high doses, respectively) for 12 h. 2-NBDG, a fluorescent deoxyglucose, was added to measure glucose uptake ([15]). The culture solution was discarded, and 2-NBDG (100 μM, diluted in DMEM without serum) was added and incubated again for 40 min. […] In total, eight parallels were set up for each sample.

In test [5] the test system is HepG2 cells. In words: Intracellular total cholesterol (TC) in HG-OA stimulated HepG2 cells. The class given is cell-based, Human. The settings on record: 12 h, HG-OA treated HepG2, vs model group. How it is done:
as §1
After the model was established, HepG2 cells were treated with BB1–BB5 (50 and 100 μM in low and high doses, respectively) in 6-well plates for 12 h. The culture solution was discarded, and 200 μl of RIPA lysis buffer was added after three washes with PBS and placed on a shaker for 10 min. The cell contents were homogenized and centrifuged (4°C, 10,000 rpm) to extract the supernatant. The TC and TG level in HepG2 cells were tested using the commercial kit by glycerol phosphate oxidase (GPO)-peroxidase (PAP) method based on several enzyme-driven reactions. The end product, hydrogen peroxide, which can be oxidatively coupled with 4-aminoantipyrine and phenol in the presence of peroxidase to yield a chromogen, was measured at 500 nm ([16]). In total, eight replicates were set for each sample.

Marks after values point to notes of the source that are not given here.

As to `OCC1OC(Oc2cc3c(O)cc(O)cc3[o+]c2-c2cc(O)c(O)c(O)c2)C(O)C(O)C1O` (centres unmarked) [BB1, delphinidin-3-O-galactoside], the EC50 in test [1] came out at 39.91 ± 0.24 µM; in test [2], 19 ± 0.2 µM. Also, in test [3], the ORAC is reported as 13.23 ± 0.03^a μmol Trolox/μmol. For the same compound, the IC50 against α-glucosidase turned out to be 68.3 ± 12.4 µM.

Take `OC[C@H]1O[C@@H](Oc2cc3c(O)cc(O)cc3[o+]c2-c2cc(O)c(O)c(O)c2)[C@H](O)[C@@H](O)[C@@H]1O` [BB2, delphinidin-3-O-glucoside]: the results for the EC50 in test [1] and in test [2] were 61.4 ± 2.29 µM and 20.7 ± 0.67 µM, respectively. In test [3], the ORAC was 9.44 ± 0.12^d μmol Trolox/μmol. On α-glucosidase, this compound came in with an IC50 of 240 ± 9.2 µM. In addition, the “Glucose uptake capacity (2-NBDG fluorescence)” value (“Glucose uptake capacity” for short) in the test with HepG2 cells [4] (100 μM) is on record as “significant increase”.

As for `COc1cc(-c2[o+]c3cc(O)cc(O)c3cc2OC2OC(CO)C(O)C(O)C2O)cc(O)c1O` (centres unmarked) [BB3, petunidin-3-O-galactoside], the EC50 in test [1] worked out at 63.2 ± 2 µM; in test [2], 24.2 ± 1.88 µM. Further, in test [3], the ORAC is listed as 11.31 ± 0.22^c μmol Trolox/μmol. This compound also showed an IC50 against α-glucosidase of 68.5 ± 20.9 µM. Moreover, the “Glucose uptake capacity” value in the test on HepG2 cells [4] (50 μM) and in the test with HepG2 cells [4] (100 μM) was “significant increase” each time. Besides, the “Intracellular TC levels” value with HepG2 cells [5] (100 μM) is “noticeably reduced”.

As for `COc1cc(-c2[o+]c3cc(O)cc(O)c3cc2O[C@@H]2O[C@H](CO)[C@@H](O)[C@H](O)[C@H]2O)cc(O)c1O` [BB4, petunidin-3-O-glucoside], the half-maximal effective concentration (EC50) in test [1] amounted to 62.11 ± 0.27 µM; in test [2], 39.3 ± 1.55 µM. In addition, the ORAC in test [3] is on record as 11.02 ± 0.16^c μmol Trolox/μmol. In addition, at α-glucosidase, the IC50 was 218 ± 22.7 µM. In addition, the “Glucose uptake capacity” value in the test with HepG2 cells [4] (100 μM) was “significant increase”. The “Intracellular TC levels” value in the test with HepG2 cells [5] (50 μM) and in the test on HepG2 cells [5] (100 μM) was “noticeably reduced” throughout.

For `COc1cc(-c2[o+]c3cc(O)cc(O)c3cc2OC2OC(CO)C(O)C(O)C2O)cc(OC)c1O` (centres unmarked) [BB5, malvidin-3-O-galactoside], the EC50 in test [1] was 38.8 ± 3.33 µM; in test [2], 14.3 ± 1 µM. In addition, in test [3], the ORAC is recorded as 11.89 ± 0.13^b μmol Trolox/μmol. On α-glucosidase, this compound came in with an IC50 of 185 ± 10.9 µM. Besides, the “Glucose uptake capacity” value in the test with HepG2 cells [4] (50 μM) and with HepG2 cells [4] (100 μM) was “significant increase” throughout. In the test on HepG2 cells [5] (100 μM), the “Intracellular TC levels” value is recorded as “noticeably reduced”.

For the compound `O=C1O[C@H]([C@@H](O)CO)C(O)=C1O` [ascorbic acid, reference compound], the EC50 in test [1] was determined as 112 ± 15.3 µM; in test [2], 44.5 ± 0.55 µM.

The values are drawn from article PMC10232738, “Five blueberry anthocyanins and their antioxidant, hypoglycemic, and hypolipidemic effects in vitro” (Frontiers in Nutrition, 2023).
